Source: the supplement of paper PMC10307832

Key:
Assay in all cases: relative viability (nuclei count vs DMSO), 5 days (fraction); higher = more cells survive
Dasatinib = compound: Cc1nc(Nc2ncc(C(=O)Nc3c(C)cccc3Cl)s2)cc(N2CCN(CCO)CC2)n1 [Dasatinib]
Outline: (§1)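 Lung cancer cell lines received five library-drug doses (not always all listed) spaced by √10, pinned on vehicle-anchored 1536-well plates after an overnight stay at 37 °C. Five days later, with no medium change, nuclei were Hoechst-stained, imaged at 4× and counted with MetaXpress. Viability is treated-well nuclei relative to vehicle-well nuclei, as a median across plates. Passing plates had control CV below 25% and at least one doubling.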

XMD13-2 = compound: C1CC1C(=O)NC2=NNC3=C2C=CC(=C3)C4=CC(=CC=C4)C(=O)NC5CC5 [XMD13-2]
Outline: as §1

ALW-II-49-7 = compound: Cc1ccc(C(=O)Nc2cccc(C(F)(F)F)c2)cc1Nc1cncc(C(N)=O)c1 [ALW-II-49-7]
Outline: as §1

Cell Line	relative viability (Dasatinib; 0.005 µM)	relative viability (Dasatinib; 0.01581 µM)	relative viability (Dasatinib; 0.05 µM)	relative viability (Dasatinib; 0.075 µM, anchor plate)	relative viability (Dasatinib; 0.1581 µM)	relative viability (Dasatinib; 0.5 µM)	relative viability (XMD13-2; 0.05 µM)	relative viability (XMD13-2; 0.1581 µM)	relative viability (XMD13-2; 0.5 µM)	relative viability (XMD13-2; 1.581 µM)	relative viability (XMD13-2; 5 µM)	relative viability (ALW-II-49-7; 0.08 µM)	relative viability (ALW-II-49-7; 0.253 µM)	relative viability (ALW-II-49-7; 0.8 µM)	relative viability (ALW-II-49-7; 2.53 µM)	relative viability (ALW-II-49-7; 8 µM)
NCI-H2009	1.07	0.988	0.929	0.303	0.456	0.236	0.989	1.13	1.22	1.04	1.07	0.967	1.04	0.93	0.844	0.709
NCI-H2023	0.883	0.888	0.735	0.592	0.648	0.593	1.18	1	0.992	0.986	1.02	0.965	0.963	0.995	0.96	0.911
NCI-H2085	0.981	0.904	0.804	0.255	0.356	0.218	1.06	0.981	1.04	0.871	1.06	1.01	1.05	0.985	1.03	0.995
NCI-H2087	1.02	0.941	1.23	0.856	0.937	0.453	1.3	1.19	1.17	1.01	0.962	1.07	1.01	1.06	1.02	0.915
NCI-H2126	0.98	0.864	0.945	0.643	0.814	0.403	1.02	0.949	1.02	1.03	1.03	0.918	1.03	1.02	0.926	0.992
NCI-H2170	0.961	0.914	0.784	0.61	0.585	0.378	1.03	0.954	0.986	1.01	0.881	1	0.969	0.973	0.908	0.966
NCI-H2228	0.994	0.869	0.94	0.535	0.645	0.442	1.16	0.99	1.27	1.06	1.17	1.09	0.783	0.735	0.904	0.85
NCI-H2342	0.967	0.632	0.834	0.311	0.535	0.309	1.1	0.97	1.03	0.804	0.972	0.866	1.04	0.98	0.925	0.951
NCI-H2347	0.913	0.838	0.659	0.314	0.452	0.333	1.05	1.02	1.06	1.08	0.935	1.05	0.968	1.04	0.973	0.949
NCI-H2405	0.842	0.726	0.533	0.205	0.305	0.222	1.09	0.986	1.05	0.883	1.08	1.01	1.06	0.961	0.963	0.802
NCI-H3122	1.02	1.04	1.06	0.766	1.01	0.87	1.01	1	1.03	1.01	1.01	1.05	0.868	1.06	1.05	1.07
PC-3 [JPC-3]	1.08	1.01	1.04	0.971	1.02	0.59	1.06	1.05	1.06	1.02	1.17	1.08	1.04	1.04	1.13	0.971
PC-14	1.12	0.98	0.877	0.264	0.65	0.234	1.08	1.04	1.07	0.98	1.13	0.933	0.98	0.95	0.961	0.898
RERF-LC-KJ	1.01	0.928	0.944	0.781	0.841	0.704	1.08	0.942	1.05	0.938	0.912	1.02	1.06	0.997	0.911	0.939
SK-LU-1	0.823	0.542	0.42	0.174	0.312	0.25	1.07	1.03	1.19	1.05	0.924	1.04	1.11	1.07	0.769	0.746
SK-MES-1	1.05	0.922	0.964	0.385	0.61	0.215	1.13	1.01	1.03	0.968	1.07	0.957	0.97	0.963	0.851	0.742
SW 900	0.67	0.733	0.647	0.701	0.405	0.254	0.96	0.765	0.924	0.741	1.03	0.826	0.975	0.736	1.03	0.622
SW 1573	0.931	0.915	0.839	0.517	0.672	0.564	1.08	0.998	1.09	0.941	0.874	0.976	1.12	1.04	1.05	0.938
